From patent US20060148908A1, “Supressant of toxicity induced by cancer chemotherapeutic agent and composition of cancer chemotherapeutic agent containing the same” (priority 2003, published 2006)
Entries after “also recorded” stand apart in the source; their conditions may differ.

Experiments:
ICR mice [1] = test: Serum biochemical parameters (GPT, GOT, BUN, creatinine) in cisplatin-treated mice; assay type: in vivo
Protocol: (§1) The kidney and spleen were separated and weighed, respectively.
Blood samples obtained from heart were kept at room temperature for 2 h, centrifuged at 3000 rpm for 10 minutes to obtain sera, and stored at low temperature for analyzing proteins. GPT (Glutamate-Pyruvate Transaminase), GOT (Glutamate-Oxaloacetate Transaminase), blood urea nitrogen (BUN), and creatinine from the serum were measured.
The principle is following: α-ketoglutaric acid+alanine→glutamate+pyruvate. Pyruvate formed by GPT enzyme in said reaction is reacted with 2,4-dinitrophenylhydrazine and the intensity of color formed by the resulting reaction is related to enzymatic activity. The absorbance was determined at 505 nm. The reagents for determining GPT and GOT were purchased from Sigma chemical Co. (St. Louis, U.S.A.). Because hemolyzed serum contains a high level of GOT and GPT compared to normal serum, only unhemolyzed serum should be used as much as possible. The separated serum samples were stored at 4° C. and used within 5 days because the activity of GPT and GOT might decrease after 5 days at low temperature.
1 ml alanine-α-KG substrate was added to test tube and was pre-warmed at 37° C. for 2-3 minutes. 0.2 ml serum samples was added to each tube and incubated at 37° C. for 30 minutes in water bath. After that, 1 ml 2,4-dinitrophenylhydrazine was added and incubated at room temperature for 20 minutes. 10 ml 0.4N NaOH solution was added to each tube and was mixed well. After that, the GPT absorbance of each tube was read comparing with distilled water. In case of GOT determination, 1 ml aspartate-α-KG substrate was pre-warmed at 37° C. for 2-3 minutes, and 0.2 ml serum samples were added to each tube and incubated at 37° C. for 60 minutes, and the absorbance was read.
Through a kit for assaying blood urea nitrogen, Ammonia (NH3) formed by hydrolysis of urea was measured by the absorbance at 570 nm.
0.5 ml urease solution was added to test tube and mixed with 10 μl serum sample, and incubated in water bath at 37° C. for 5-10 minutes. 1 ml phenol nitroprusside solution and 1 ml alkaline hypochlorite solution were added to the tube and mixed gentlely, and 5 ml distilled water was added. After that, the absorbance of the reaction was measured comparing with distilled water as a control. The reagents for determining urea nitrogen were purchased from Sigma chemical Co. (St. Louis, U.S.A.) and standard calibration curve was used.
Standard calibration curve was used.
3 ml alkaline picrate solution and 0.3 ml serum sample were mixed well at 37° C. for 20 minutes and the absorbance (A1) was measured. Distilled water was used for a negative control. 0.1 ml acid solution (mixture of sulfuric acid and acetic acid) was added to each tube and incubated in water bath at 37° C. for 5 minutes. After that, the absorbance (A2) was read with distilled water as a negative control. Absorbance of the sample for determining the content of creatinine is absorbance (A1) minus absorbance (A2) according to standard calibration curve. The reagents for determining creatinine were purchased from Sigma chemical Co. (St. Louis, U.S.A.)

S100A9 = test: DDRT-PCR and semiquantitative RT-PCR of liver, S100A9 mRNA expression; assay type: in vivo, mice
Kin = conditions: mouse, in vivo
Protocol: After that, powdered liver tissues were homogenized using TRIzol™ reagent (Life technologies, Austria). The homogenized samples were incubated for 5 min at room temperature to permit the complete dissociation of nucleoprotein complexes. After the addition of 0.2 volume of chloroform, samples were shaken vigorously for 15 seconds, incubated for 2-3 min, and centrifuged at 12000×g for 15 min at 4° C. Total RNA in the upper aqueous phase was precipitated by mixing with an equal volume of isopropanol. The mixtures were incubated for 10 min at 4° C. and centrifuged at 12000×g for 10 min at 4° C. Total RNA pellet was washed with 75% ethanol, dried, and dissolved in RNase free water. To prevent the contamination with chromosomal DNA, total RNA samples were incubated with 10 units of DNase I (GenHunter Corp., Nashville, USA) at 37° C. for 30 min, and then DNA-free RNA was isolated using TRIzol reagent. The concentration and purity of total RNA and DNase-I-treated total RNA were calculated with absorbance at 260 and 280 nm.
DDRT-PCR (differential display reverse transciption-polymerase chain reaction) was performed using the RNAimage kit (GenHunter Corp., Nashville, USA). […]

ClpX = test: DDRT-PCR and semiquantitative RT-PCR of liver, ClpX mRNA expression; assay type: in vivo, mice
iNOS = test: Semiquantitative RT-PCR of liver, iNOS mRNA expression; assay type: in vivo, mice; conditions: for induction of iNOS mRNA expression by cisplatin: pretreatment before cisplatin
Protocol: (§2) The mRNA expression levels of NF-κB-dependent genes, COX-2 and iNOS, were evaluated by semiquantitative RT-PCR using specific primer sets. β-actin and GAPDH were used as control.
as §1

AP-1 = test system: AP-1
Protocol: (§3) The density of band was measured by RFLPscan software.
as §1
(§4) EMSA (electrophoretic mobility shift assay) was performed to evaluate the xanthorrhizol's effects on NF-κB and AP-1. […] After that, powdered liver tissues were homogenized in 500 μl of cool hypotonic buffer [10 mM HEPES (pH 7.8), 10 mM KCl, 1.5 mM MgCl2, 0.5 mM DIT, 0.2 mM PMSF]. To the homogenates was added 125 μl of 10% NP-40 solution, and the mixture was then centrifuged at 12,000×g for 1 min. Pellets were washed once with 100 μl of the above buffer and 12.5 μl of 10% NP-40, centrifuged, resuspended in 50 μl of 20 mM cool HEPES buffer (pH 7.8) containing 420 mM NaCl, 1.5 mM MgCl2, 0.2 mM EDTA, 0.5 mM DTT, 0.2 mM PMSF, and 20% glycerol, and centrifuged at 12000×g for 5 min at 4° C. The supernatant containing nuclear proteins was collected and assayed protein concentration and stored at −70° C. […] The binding reaction was carried out in 25 μl of the mixture containing 5 μl of incubation buffer [10 mM Tris-HCl (pH 7.5), 100 mM NaCl, 1 mM DTT, 1 mM EDTA, 4% (v/v) glycerol, and 0.1 mg/ml sonicated salmon sperm DNA], 10 μg of nuclear extracts, and 100,000 cpm of the labeled probe. After 50 min of incubation at room temperature, the samples and comparative samples mixed with 3 μl of loading buffer (250 mM Tris-HCl (pH7.5), 0.2% bromophenol blue, 40% glycerol) were electrophoresed through a 6% non-denaturing polyacrylamide gel at 150 V for 2 hrs. Finally, the gel was dried and exposed to X-ray film.

NF-κB = conditions: for binding activity of NF-κB induced by cisplatin: liver, oral pretreatment before cisplatin
Protocol: as §3, §1, §4

COX-2 = test: Semiquantitative RT-PCR of liver, COX-2 mRNA expression; assay type: in vivo, mice; conditions: for cisplatin-induced COX-2 mRNA expression: pretreatment 200 mg/kg before cisplatin
Protocol: as §2, §1

ICR mice [2] = test: Kidney and spleen weight relative to body weight in cisplatin-treated mice; assay type: in vivo; conditions: for specific gravity of kidney: oral pretreatment for 4 days before cisplatin injection, versus cisplatin only
Protocol: Cisplatin was intraperitoneally injected in mice. After some time passed, body weights of the mice were checked and induction of toxicity was confirmed. Blood was gotten from the heart of etherized mouse, and biochemical markers related to the induction of hepatotoxicity and nephrotoxicity were evaluated, and the kidney and spleen were separated and weighed for comparison.
Changes of specific gravity of kidney were also measured to evaluate suppressing effects of xanthorrhizol on nephrotoxicity induced by cisplatin.
as §1

rat uterine = conditions: Ponce-Monter et al. 1999; cited from earlier work
Streptococcus mutans = conditions: Hwang 2000; cited from earlier work
[3] = cisplatin 45 mg/kg i.p. alone, 16 h after injection
[4] = administration of cisplatin alone
[5] = cisplatin 45 mg/kg i.p. alone (corn oil orally 4 days), 16 h after injection
[6] = 200 mg/kg per day orally 4 days, then cisplatin 45 mg/kg i.p., 16 h
[7] = liver, oral pretreatment before cisplatin
[8] = 100 mg/kg per day orally 4 days, then cisplatin 45 mg/kg i.p., 16 h
[9] = 200 mg/kg per day orally 4 days, then cisplatin 45 mg/kg i.p., 16 h, listed as xanthorrhizol

Protocol for CP: Each example group consisted of 10 ICR mice (5 weeks, male). […] Only the corn oil was dosed orally as a negative control. […] Mice were weighed 16 h after the injection, killed under ether anesthesia and blood and liver samples were collected. The kidney and spleen were separated and weighed, respectively.
After that, powdered liver tissues were homogenized using TRIzol™ reagent (Life technologies, Austria). The homogenized samples were incubated for 5 min at room temperature to permit the complete dissociation of nucleoprotein complexes. After the addition of 0.2 volume of chloroform, samples were shaken vigorously for 15 seconds, incubated for 2-3 min, and centrifuged at 12000×g for 15 min at 4° C. Total RNA in the upper aqueous phase was precipitated by mixing with an equal volume of isopropanol. The mixtures were incubated for 10 min at 4° C. and centrifuged at 12000×g for 10 min at 4° C. […] The concentration and purity of total RNA and DNase-I-treated total RNA were calculated with absorbance at 260 and 280 nm. […]
Semiquantitative RT-PCR was performed to confirm the results from DDRT-PCR. To set the most suitable PCR amplification conditions, primers for interesting gene were determined by an on-line primer design program (Rozen and Skaletsky, 2000). […]

N.N.[Cl][Pt][Cl] [Cisplatin, cis-diamminedichloroplatinum [II], reference compound]
BUN (blood urea nitrogen) (ICR mice [1]; [3]): 144.4 ± 20.6 mg/dL | Creatinine (ICR mice [1]; [3]): 2.8 ± 0.7 mg/dL | GOT (ICR mice [1]; [3]): 517.1 ± 99.1 U/liter | GPT (ICR mice [1]; [3]): 185.8 ± 86.3 U/liter | S100A9 mRNA expression (S100A9; cisplatin alone): upregulated | Kin mRNA expression (Kin): upregulated | CP mRNA expression (CP; mouse, in vivo): downregulated | ClpX mRNA expression (ClpX; cisplatin alone): downregulated | iNOS mRNA expression (iNOS; [4]): highly induced | DNA-binding activity of AP-1 (AP-1; mouse, in vivo): decreased | DNA-binding activity of NF-κB (NF-κB; mouse, in vivo): increased | COX-2 mRNA expression (COX-2; [4]): highly induced | K.W/B.W * 1000% (kidney weight/body weight) (ICR mice [2]; [5]): 19.2 ± 1.6 | S.W/B.W * 1000% (spleen weight/body weight) (ICR mice [2]; [5]): 2.1 ± 0.4

COc1cc(/C=C/C(=O)CC(=O)/C=C/c2ccc(O)c(OC)c2)ccc1O [Curcumin, curcumin, reference compound]
BUN (blood urea nitrogen) (ICR mice [1]; [6]): 138.6 ± 46.2 mg/dL | Creatinine (ICR mice [1]; [6]): 2.2 ± 1.4 mg/dL | GOT (ICR mice [1]; [6]): 381.6 ± 144.7 U/liter | GPT (ICR mice [1]; [6]): 158.4 ± 84.3 U/liter | CP mRNA expression level changed by cisplatin (CP; liver, pretreatment before cisplatin): did not show that effect | induction of iNOS mRNA expression by cisplatin (iNOS): not suppressed | suppressed binding activity of AP-1 (by cisplatin) (AP-1; [7]): did not change | binding activity of NF-κB induced by cisplatin (NF-κB): suppressed | cisplatin-induced COX-2 mRNA expression (COX-2): returned the cisplatin-induced COX-2 mRNA expression to initial level | K.W/B.W * 1000% (kidney weight/body weight) (ICR mice [2]; [6]): 17.2 ± 1.7 | S.W/B.W * 1000% (spleen weight/body weight) (ICR mice [2]; [6]): 2.0 ± 0.1 | specific gravity of kidney (ICR mice [2]): decreased specific gravity of kidney at the level similar to that of the control group

CC(C)=CCC[C@@H](C)c1ccc(C)c(O)c1 [Xanthorrhizol, xanthorrhizol]
BUN (blood urea nitrogen) (ICR mice [1]; [8]): 145.2 ± 23.5 mg/dL | Creatinine (ICR mice [1]; [8]): 2.0 ± 1.1 mg/dL | GOT (ICR mice [1]; [8]): 296.5 ± 74.5 U/liter | GPT (ICR mice [1]; [8]): 134.2 ± 58.5 U/liter | BUN (blood urea nitrogen) (ICR mice [1]; [6]): 50.9 ± 16.7 mg/dL | Creatinine (ICR mice [1]; [6]): 0.8 ± 0.5 mg/dL | GOT (ICR mice [1]; [6]): 201.4 ± 50.3 U/liter | GPT (ICR mice [1]; [6]): 106.0 ± 28.3 U/liter | BUN (blood urea nitrogen) (ICR mice [1]; [9]): significantly decreased | Creatinine (ICR mice [1]; [9]): significantly decreased | GPT (ICR mice [1]; [9]): significantly reduced | tonic contraction of rat uterine (rat uterine): dose-dependently limits tonic contraction | S100A9 mRNA expression level changed by cisplatin (S100A9; pretreatment before cisplatin): reversed | antibacterial effect against oral bacteria such as Streptococcus mutans (Streptococcus mutans): antibacterial effect | ClpX mRNA expression level changed by cisplatin (ClpX; pretreatment before cisplatin): maintained the ClpX mRNA expression in the same level as without administrating with cisplatin; also recorded: reversed | induction of iNOS mRNA expression by cisplatin (iNOS): strongly suppressed | recovery of the binding activity of AP-1 suppressed by cisplatin (AP-1; [7]): about 50% | binding activity of NF-κB induced by cisplatin (NF-κB): suppressed | cisplatin-induced COX-2 mRNA expression (COX-2): returned the cisplatin-induced COX-2 mRNA expression to initial level | K.W/B.W * 1000% (kidney weight/body weight) (ICR mice [2]; [8]): 17.5 ± 2.9 | S.W/B.W * 1000% (spleen weight/body weight) (ICR mice [2]; [8]): 2.1 ± 0.4 | K.W/B.W * 1000% (kidney weight/body weight) (ICR mice [2]; [6]): 14.6 ± 0.9 | S.W/B.W * 1000% (spleen weight/body weight) (ICR mice [2]; [6]): 2.0 ± 0.3 | specific gravity of kidney (ICR mice [2]): decreased specific gravity of kidney at the level similar to that of the control group
